Experimental data as given in PMC7078479, “Sulfamoyl Heteroarylcarboxylic Acids as Promising Metallo-β-Lactamase Inhibitors for Controlling Bacterial Carbapenem Resistance” (mBio, 2020).

How the values were obtained:
[1] = molecular target: T1, IMP-1 (Serratia marcescens, UniProt P52699); test: Library screening, nitrocefin hydrolysis by IMP-1; format: biochemical; details: 100 μM compound, 10 nM IMP-1, 100 μM nitrocefin, 1 h
T1 construct: made in house
From the text: Screening compounds were provided from the curated collection of an in-house small-molecule chemical library (the chemical library of the Institute of Transformative Bio-Molecules [ITbM]). The library is composed of structurally diverse molecules, including synthetic molecules with unknown activity, known enzyme inhibitors, approved drugs, and natural products. Some of these molecules are commercially available from several worldwide chemical suppliers, whereas some are structurally novel molecules synthesized in-house by ITbM. All compounds were dissolved in dimethyl sulfoxide (DMSO) at a concentration of 10 mM and stored at −20°C until further use. We screened 22,671 compounds in 96-well flat plates using nitrocefin as a reporter substrate ([37]). Each well included 20 mM HEPES-NaOH buffer (pH 7.5) containing 10 nM IMP-1, 100 μM nitrocefin, and 100 μM concentrations of the tested compounds. The absorbance (Abs) at 482 nm was measured after incubation for 1 h at room temperature. The inhibitory effect of compounds against IMP-1 was evaluated using the following equation: Residual ratio=Abs482 nm compound/Abs482 nm no compound

[2] = test system: E. coli DH5α/pBC-NDM-1; test: Susceptibility and checkerboard testing, NDM-1-producing E. coli; format: cell-based, Escherichia coli; details: Escherichia coli, read-out: MIC of MPM without inhibitor
Experimental: (§1) MICs were determined via the microdilution method according to the CLSI guidelines ([38]). In brief, 5 × 10^4 bacterial cells were inoculated in 100 μl of cation-adjusted Mueller-Hinton broth (Becton, Dickinson and Company, Franklin Lakes, NJ) containing the β-lactams and appropriately diluted inhibitors. The final concentration of DMSO was maintained at 2% in the assays. The tested plates were then incubated at 35°C for 16 to 20 h. The MIC value was determined as the lowest concentration of tested β-lactams where no bacterial growth was visibly observed. The optical density at 600 nm (OD600) value was measured using a plate reader for drawing the heat maps. The FIC index value was calculated using the following equation: FIC index=MIC of β-lactam with inhibitor/MIC of β-lactam alone+MIC of inhibitor with β-lactam/MIC of inhibitor alone
(§2) Unless noted otherwise, the FIC index was defined as the lowest value among all obtained values. The synergistic effect was defined as the effect observed when the FIC index value was ≤0.5.

[3] = test system: P. aeruginosa PAO1/pME-IMP-1; test: Susceptibility testing, IMP-1-producing P. aeruginosa PAO1; format: cell-based; details: Pseudomonas aeruginosa, PAO1, read-out: MIC of MPM without inhibitor
Experimental: as §1

[4] = test system: E. coli DH5α/pBC-IMP-1; test: Susceptibility and checkerboard testing, IMP-1-producing E. coli; format: cell-based, Escherichia coli
Experimental: as §1, §2

[5] = test system: E. coli BL21(DE3)/pET-SIM-1; test: Susceptibility testing, SIM-1-producing E. coli; format: cell-based; details: Escherichia coli, read-out: MIC of MPM without inhibitor
Experimental: as §1

[6] = test system: P. aeruginosa PAO1/pME-VIM-2; test: Susceptibility testing, VIM-2-producing P. aeruginosa PAO1; format: cell-based; details: Pseudomonas aeruginosa, PAO1, read-out: MIC of MPM without inhibitor
Experimental: as §1

[7] = test system: IMP-1-producing E. coli NUBL-24; test: Mouse infection model, E. coli NUBL-24, survival; format: in vivo, mice; details: SFC 100 mg/kg or MPM 0.2 mg/kg i.p. at 1 and 3 h after infection; within 48 h
Experimental: All experiments were approved by the Nagoya University Animal Ethics Committee, and all experiments were performed in a manner that minimized animal suffering. Male CD1 mice (4 weeks old; 20 to 25 g body weight) were purchased from Charles River Laboratories Japan (Yokohama, Japan). E. coli NUBL-24 (blaIMP-1) and K. pneumoniae MS5674 (blaNDM-1 and blaVIM-1) strains were inoculated on LB agar plates and grown for 18 h at 37°C. Bacteria were then scraped from the plates, and their concentration was adjusted to 5 × 10^6 to 1 × 10^7 CFU in saline solution containing 5% mucin; this solution was then i.p. injected into the mice. At 1 and 3 h after infection, saline solution, MPM, inhibitors, and a combination of MPM and inhibitor were i.p. injected. Mice were monitored for 7 days to formulate survival curves, after which they were euthanized by CO2 asphyxiation.

[8] = test system: E. coli DH5α/pBC-TMB-2; test: Susceptibility testing, TMB-2-producing E. coli; format: cell-based; details: Escherichia coli, read-out: MIC of MPM without inhibitor
Experimental: as §1

[9] = test system: IMP-type MBL-producing Enterobacteriaceae; test: Susceptibility testing, 19 IMP-type MBL-producing Enterobacteriaceae isolates; format: cell-based; details: read-out: MIC of MPM alone
Experimental: as §1

[10] = test system: IMP-1-producing E. coli NUBL-24; test: Susceptibility and checkerboard testing, E. coli NUBL-24; format: cell-based; details: Escherichia coli; E. coli NUBL-24 (blaIMP-1), MPM alone
Experimental: as §1, §2
The initial density of E. coli NUBL-24 (blaIMP-1) (MPM MIC, 8 μg/ml) was adjusted to approximately 5 × 10^6 CFU/ml. Either MPM (1 μg/ml) alone or SFC (10 μg/ml) alone or a combination of the two was added to the bacterial solution, and then incubation was performed at 37°C. LB broth containing only bacteria was used as a control. […]

[11] = test system: P. aeruginosa PAO1/pME6032; test: Susceptibility testing, P. aeruginosa PAO1 with empty vector; format: cell-based; details: Pseudomonas aeruginosa, PAO1, read-out: MIC of MPM without inhibitor
Experimental: as §1

[12] = test system: P. aeruginosa PAO1/pME-NDM-1; test: Susceptibility testing, NDM-1-producing P. aeruginosa PAO1; format: cell-based; details: Pseudomonas aeruginosa, PAO1, read-out: MIC of MPM without inhibitor
Experimental: as §1

T1 sequence (P52699 19-246 limits assumed): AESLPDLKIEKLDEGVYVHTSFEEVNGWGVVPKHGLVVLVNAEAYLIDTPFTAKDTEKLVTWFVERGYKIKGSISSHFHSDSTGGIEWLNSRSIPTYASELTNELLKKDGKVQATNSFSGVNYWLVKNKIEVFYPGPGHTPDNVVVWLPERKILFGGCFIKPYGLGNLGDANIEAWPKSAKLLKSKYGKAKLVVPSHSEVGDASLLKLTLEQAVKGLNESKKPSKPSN

Compound	Residual ratio (Abs482 compound/no compound) [1]	MIC [2] [µg/mL]	MIC [3] [µg/mL]	MIC of MPM without inhibitor ([4]; E. coli DH5α/pBC-IMP-1) [µg/mL]	MIC ([4]; Escherichia coli, read-out: MIC of MPM without inhibitor) [µg/mL]	MIC [5] [µg/mL]	MIC [6] [µg/mL]	Rescue of infected mice by monotherapy [7]	MIC [8] [µg/mL]	MIC [9] [µg/mL]	MIC [10] [µg/mL]	MIC [11] [µg/mL]	MIC [12] [µg/mL]
O=C([O-])C1=CS[C@@H]2/C(=C\c3cn4c(n3)COCC4)C(=O)N12.[Na+] [BLI-489]	< 0.6												
C[C@@H](O)[C@H]1C(=O)N2C(C(=O)O)=C(S[C@@H]3CN[C@H](C(=O)N(C)C)C3)[C@H](C)[C@H]12 [MPM, meropenem, reference compound]		64	128	1	1	16	32	failed to rescue mice	16	≥ 2	8	0.5	8
